From patent US20180161425A1, “NOVEL PROTEIN STRUCTURE USED FOR EFFICIENT ANTIBODY PRODUCTION IN IMMUNIZATION” (priority 2014, published 2018)
Where “and” joins values, the source holds several entries; their conditions need not be identical. Equal values may be shown once.

Columns and labels:
[1] = test system: MDCK cells; type: cell-based
[2] = test system: MCP-1; set-up: species or system mice; conditions: mouse, in vivo

| Substance | cell binding and internalization of FITC labeled peptide [1] | cell binding activity when compared to AH2 peptide [1] [%] | further results |
| --- | --- | --- | --- |
| DRLFFKCIYRRFKYGLKRG [AH5] | did not bind to the membrane as well as AH2, they did all bind and were internalized to the cell at different levels |  |  |
| DRLFFKCIYRRLKYGLKRG [AH3] | did not bind to the membrane as well as AH2, they did all bind and were internalized to the cell at different levels |  |  |
| DRLFFKCVYRLFKHGLKRG [AH4] | did not bind to the membrane as well as AH2, they did all bind and were internalized to the cell at different levels |  |  |
| KRLFKLSYIETRYMASDK [SWS-AH] |  | 24 |  |
| MHSATAAQLETLRLFKFP [ANMV-AH] |  | 15 |  |
| MPRLFKIYAKNYFLTYPN [TYLCV-AH] |  | 25 |  |
| RTLSLLRRLFFKSDLGFL [AHV-AH] |  | 40 |  |
| flagellin |  |  | plasma MCP-1 level [2]: 3000 pg/mL and 2600 pg/mL |
